Several values for one entry are separate records, joined by “and”; a condition that tells them apart may be missing. Identical values can stand only once.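 All cell lines were grown in 96-well plates and treated with compound for 48 hours. GI50: concentration for 50% inhibition of growth. TGI marks complete inhibition of growth.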
Experiments:
Test in all cases: inhibition of tumour cell growth, NCI panel, 48 h
KM12 colon = test system: KM12 colon
HOP-92 NSCLC = test system: HOP-92 NSCLC
HT29 colon = test system: HT29 colon
RPMI-8226 leukemia = test system: RPMI-8226 leukemia
UACC-257 melanoma = test system: UACC-257 melanoma
NCI-H460 lung = test system: NCI-H460 lung
DU-145 prostate = test system: DU-145 prostate
NCI-H522 lung = test system: NCI-H522 lung
CCRF-CEM leukemia = test system: CCRF-CEM leukemia
K-562 leukemia = test system: K-562 leukemia

SMILES | GI50 (KM12 colon) | TGI (KM12 colon) | GI50 (HOP-92 NSCLC) | TGI (HOP-92 NSCLC) | GI50 (HT29 colon) | TGI (HT29 colon) | GI50 (RPMI-8226 leukemia) | TGI (RPMI-8226 leukemia) | GI50 (UACC-257 melanoma) | TGI (UACC-257 melanoma) | GI50 (NCI-H460 lung) | TGI (NCI-H460 lung) | GI50 (DU-145 prostate) | TGI (DU-145 prostate) | TGI (NCI-H522 lung) | TGI (CCRF-CEM leukemia) | GI50 (K-562 leukemia) | TGI (K-562 leukemia) | GI50 (CCRF-CEM leukemia) | GI50 (NCI-H522 lung)
CN(CCCNC(=O)Cc1ccc2ccc3cccc4ccc1c2c34)CCCNc1cc(-c2ccc3ccccc3c2)nc2ccccc12 | 1.36 µM | 2.69 µM | 1.41 µM | 3.02 µM | 0.511 µM | 1.69 µM | 1.22 µM | 4.11 µM | 1.8 µM | 3.56 µM | 1.65 µM | 3.61 µM | 1.55 µM | 2.89 µM | – | – | – | – | – | –
COc1cc2c(cc1O)C1Cc3ccc(OC)c(O)c3C(C2)N1C (centres undefined) | – | > 100 µM | – | > 100 µM | – | > 100 µM | – | > 100 µM | – | > 100 µM | – | > 100 µM | – | > 100 µM | > 100 µM | > 100 µM | – | – | – | –
CC(C)N=c1cc2n(-c3ccc(Cl)cc3)c3ccccc3nc-2cc1Nc1ccc(Cl)cc1 | 1.18 µM | > 50 µM | 0.629 µM | 2.83 µM | 0.537 µM and 0.827 µM | > 50 µM and 6.27 µM | 0.821 µM | 2.62 µM | 2.58 µM | > 50 µM | 0.778 µM | > 50 µM | 3.14 µM and 3.41 µM | > 100 µM | – | > 100 µM | 2.24 µM | > 100 µM | 0.75 µM and 2.49 µM | –
COc1cc(C2=C(c3cn(C)c4ccccc34)COC2=O)cc(OC)c1OC | – | – | 0.249 µM | 4.91 µM | 0.0383 µM | – | 0.109 µM | 1.95 µM | – | – | 0.0532 µM | 1.68 µM | 0.211 µM | > 100 µM | 0.716 µM | > 100 µM | 0.037 µM | > 100 µM | 0.0592 µM | 0.0485 µM
COc1ccc(-c2ccc(/C=N/n3c(C)n[nH]c3=S)o2)c([N+](=O)[O-])c1 | > 100 µM | > 100 µM | 12.4 µM | 45.4 µM | > 100 µM | > 100 µM | > 100 µM | > 100 µM | – | – | > 100 µM | > 100 µM | > 100 µM | > 100 µM | > 100 µM | > 100 µM | > 100 µM | > 100 µM | > 100 µM | > 100 µM
N#C/C(=C/N1CCN(C(=O)c2ccco2)C1=S)C(=O)c1ccccc1 | 6.49 µM | > 100 µM | 26.9 µM | > 100 µM | 30.5 µM | > 100 µM | 5.56 µM | > 100 µM | – | – | 9.52 µM | > 100 µM | 5.01 µM | > 100 µM | 12.3 µM | > 100 µM | 5.51 µM | > 100 µM | 41.9 µM | 3.74 µM
CCOC(=O)c1c[nH]c2oc(/C=N/N3CC(CN4CCOCC4)OC3=O)cc2c1=O (centres undefined) | – | > 100 µM | – | > 100 µM | – | > 100 µM | – | > 100 µM | – | > 100 µM | – | > 100 µM | – | > 100 µM | – | > 100 µM | – | > 100 µM | – | –
CC(=O)/C=C/c1ccc(C#Cc2ccccc2)s1 | 6.1 µM | 36.7 µM | – | – | 12 µM | 25.2 µM | 20.7 µM | 38 µM | 19.1 µM | 34.3 µM | 16.2 µM | 33.3 µM | 10.8 µM | 24 µM | 25.4 µM | 47.6 µM | 19.8 µM | 56.4 µM | 22.2 µM | 12.7 µM

— PubChem BioAssay (NCI)
